Results: US20050256103A1, “Indole derivative having piperidine ring” (Eisai Co., Ltd., priority 2004, published 2005)
Where two headings read alike, the source gives them in different places.

Key:
5-HT1A receptor = biological target: T1, 5-HT1A receptor (Sus scrofa, UniProt A0A4X1UTF5); assay: Affinity for serotonin 1A receptor: inhibition of [3H]MPPF binding in swine hippocampal membrane fraction; settings: for IC50: [3H]MPPF 0.5 nM, swine hippocampal membrane, 37°C 30 min
T1 construct: Swine hippocampus was homogenized in a 50 mM Tris-Hcl buffer; from tissue; host or cells: swine hippocampus, membrane fraction
T1 sequence (A0A4X1UTF5 1-422): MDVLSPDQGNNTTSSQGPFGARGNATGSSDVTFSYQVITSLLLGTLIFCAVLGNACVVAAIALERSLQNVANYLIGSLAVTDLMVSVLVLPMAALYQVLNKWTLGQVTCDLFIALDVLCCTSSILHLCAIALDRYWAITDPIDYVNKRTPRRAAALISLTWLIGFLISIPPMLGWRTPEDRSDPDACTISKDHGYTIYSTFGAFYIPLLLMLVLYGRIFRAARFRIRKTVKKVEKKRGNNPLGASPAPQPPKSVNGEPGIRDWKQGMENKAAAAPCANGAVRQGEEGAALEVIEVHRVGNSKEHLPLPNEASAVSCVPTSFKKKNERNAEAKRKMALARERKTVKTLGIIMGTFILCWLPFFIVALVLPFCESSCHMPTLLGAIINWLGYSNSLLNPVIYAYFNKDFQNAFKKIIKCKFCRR
Summary of the method: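 Swine hippocampal membranes incubated 30 min at 37 °C with 0.5 nM [3H]MPPF and test compound in 50 mM Tris-HCl pH 7.4, 1% DMSO, with 10 mM MgCl2 (G-protein-coupled, high-affinity state) or 1 mM Gpp(NH)p (uncoupled, low-affinity state). Bound radioactivity measured by filtration and scintillation counting; nonspecific binding defined with 10 μM WAY-100,635. IC50 in each state; low/high IC50 ratio taken as an estimate of intrinsic activity.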

Sprague-Dawley male rats = assay: Effect of controlling memory disorder induced by 8-OH-DPAT in rats (8-arm radial maze); type: in vivo, rat; settings: 0.3 mg/kg, s.c., 20 min before 8-OH-DPAT 0.5 mg/kg s.c.; Mean ± S.E., N 8
From the text: (1) A Sprague-Dawley male rats (130-200 g) were bred in an individual cage and used in the present test. For appetite stimulation, the body weight of the rats was reduced to approximately 80% of the original weight by fasting. […] As a maze test, an elevated 8-arm radial maze (central platform diagonal length: 34 cm, arm length: 60 cm; arm width: 12 cm) was used. In order to allow the rats to remember the positions of baits placed on the arms, the rats were left on the platform of the maze in which baits had been placed on the tips of the 4 predetermined arms. Thereafter, the rats were left on the maze for a certain period of time or until it ate all the baits. This training was carried out 1 to 3 times a day. The rats that had sufficiently learned were subjected to the following experiment. A solvent or test substance was subcutaneously administered to the rats. Twenty minutes later, 0.5 mg/kg 8-OH-DPAT was subcutaneously administered thereto. Further, 20 minutes later, the same maze test as that in the training was carried out. A reference memory error was defined as an action to enter arms on which no baits had been placed, and a working memory error was defined as an action to enter again arms on which baits had previously been placed. Thus, the actions of the rat were recorded. In addition, the time required for the rat to take all the four baits was also recorded. […] (Reference:Yoshihiro Hiraga, “Effects of scopolamine upon delayed radial-arm maze performance in rats” Folia pharmacol. Japon. 97, 351-359 (1991)) The results are shown in Table 4.

IC50 (5-HT1A receptor; receptor in high affinity (G-protein binding, MgCl2 10 mM) state, read-out: High affinity IC50): 0.2 nM
IC50 (5-HT1A receptor; receptor in low affinity (G-protein non-binding, Gpp(NH)p 1 mM) state, read-out: Low affinity IC50): 0.16 nM
L/H ratio (5-HT1A receptor; low affinity IC50 divided by high affinity IC50, 1 or smaller = no intrinsic activity, 2 or greater = intrinsic activity): 0.8
Compound: CNC(=O)c1ccc2ccn(C3CCN(CCc4c(OC)ccc5c4OC(C)(C)CC5=O)CC3)c2c1 [Compound 20, 1-{1-[2-(7-methoxy-2,2-dimethyl-4-oxochroman-8-yl)ethyl]piperidin-4-yl}-N-methyl-1H-indole-6-carboxamide]
Elapsed time (Sprague-Dawley male rats): 52 ± 9.9 s
Number of reference memory errors (Sprague-Dawley male rats): 1.50 ± 0.57
Number of working memory errors (Sprague-Dawley male rats): 0.25 ± 0.16
